Source: ChEMBL document CHEMBL1201862, “PubChem BioAssay data set” (2004)
Active and inactive are the calls of the source.

Tests used:
[1] = target: T1, Oxysterols receptor LXR-beta (Homo sapiens, UniProt P55055); type: functional, cell-based;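 note: Cell-based luminescence dose-response assay of agonist activity at LXR, run as a confirmatory counterscreen to a daf-12 agonist screen; agonist potency from rising luciferase signal of a Gal4-LXR reporter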
T1 sequence (P55055 whole entry): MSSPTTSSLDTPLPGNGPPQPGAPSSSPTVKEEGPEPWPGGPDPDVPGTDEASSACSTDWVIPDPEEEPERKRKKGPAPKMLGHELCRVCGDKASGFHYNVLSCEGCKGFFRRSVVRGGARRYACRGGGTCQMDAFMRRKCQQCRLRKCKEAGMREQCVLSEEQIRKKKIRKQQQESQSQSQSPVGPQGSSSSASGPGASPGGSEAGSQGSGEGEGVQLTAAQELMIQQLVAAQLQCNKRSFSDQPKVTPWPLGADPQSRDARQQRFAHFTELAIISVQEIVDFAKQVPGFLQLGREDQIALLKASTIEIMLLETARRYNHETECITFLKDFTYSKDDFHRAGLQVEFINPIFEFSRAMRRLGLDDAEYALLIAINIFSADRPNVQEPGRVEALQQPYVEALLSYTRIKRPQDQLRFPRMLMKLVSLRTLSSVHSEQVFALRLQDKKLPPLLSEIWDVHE

Ephrin type-A receptor 4 = Ephrin type-A receptor 4 (Mus musculus, UniProt Q03137); assay: inhibitors of EphA4 binding to KYL peptide, primary screen, biochemical, colorimetric, mouse EphA4 (AID 689); type: functional
[2] = target: T2, Probable nicotinate-nucleotide adenylyltransferase (Staphylococcus aureus (strain N315), UniProt P65502); type: functional, Staphylococcus aureus subsp. aureus N315;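 for IC50 Mean: confirmatory dose-response retesting of NadD inhibitor hits first found in an ultra-high-throughput screen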
[3] = target: T2, Probable nicotinate-nucleotide adenylyltransferase; type: functional, Staphylococcus aureus subsp. aureus N315; conditions: read-out: IC50_Mean
Estrogen receptor beta = Estrogen receptor beta (Homo sapiens, UniProt Q92731);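 note: recombinant ER-beta bound to coactivator SRC1 peptide in presence of estradiol agonist; inhibitors block coactivator peptide binding and lower the FRET signal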
Paired box protein Pax-8 = Paired box protein Pax-8 (Homo sapiens, UniProt Q06710); assay: inhibitors of PAX8-driven TPO luciferase reporter, dose response, RMG-I cells, cherry-pick (AID 687027); type: functional, cell-based;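 note: luciferase reporter driven by Pax8 target thyroperoxidase promoter measured by SteadyGlo luminescence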
HEK293 = assay: inhibitors of LMP1-driven NF-kB reporter, dose response, cell-based, HEK293, luciferase, cherry-pick (AID 588343); type: functional; conditions: Homo sapiens
[4] = non-specific cell cytotoxicity, dose response, cytotoxicity control for PAX8 inhibitor project, plate reader, dry powder samples (AID 743021); type: functional, cell-based
Beta-galactosidase = Beta-galactosidase (Escherichia coli, UniProt Q8VNN2); assay: beta-galactosidase enzyme inhibitors and activators, dose response, artefact control for CCR6 antagonist project, biochemical, E. coli enzyme, set 3 (AID 504712); type: functional
[5] = HEK293T cytotoxicity, dose response, cytotoxicity control for miR-122 modulator project, cell-based, inhibitor set, cherry-pick, set 2 (AID 720697); type: functional
INS1 = assay: beta cell apoptosis inhibitors, cytokine rescue, dose response, luminescence, retest (AID 449756); type: functional, cell-based; conditions: Rattus norvegicus;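 note: cell death triggered by IL-1 beta plus TNF-alpha plus IFN-gamma mixture; protective hits raise ATP signal compared with cytokine alone wells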
[6] = target: Sphingosine 1-phosphate receptor 2 (Homo sapiens, UniProt O95136); assay: Dose Response Cell Based Assay for Antagonists of the S1P2 Receptor. [Related pubchem assays: 856, 736 ]; type: functional
BJ [7] = assay: cytotoxicity toward BJ-TERT-LT-ST fibroblasts, dose response, cell-based, RAS-independent, luminescence (AID 1935); type: functional; conditions: Homo sapiens;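 note: BJ fibroblasts immortalized with TERT plus LT and ST oncogenes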
BJ [8] = assay: cells; type: functional, cell-based; conditions: Homo sapiens
BJ [9] = assay: cytotoxicity toward BJ-TERT fibroblasts, dose response, cell-based, RAS-independent, luminescence (AID 1933); type: functional; conditions: Homo sapiens
[10] = Shn3 3'UTR reporter inhibitors, dose response, cell-based, Clone20 osteoblasts, firefly luciferase, cherry-picked (AID 624132); type: functional;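 note: firefly luciferase luminescence from reporter carrying the Shn3 3'UTR in osteoblasts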
[11] = cytotoxicity in HEK-293T cells, dose response, cytotoxicity control for TCR NF-kB inhibitor project, luminescence, T-cell screen hits (AID 489026); type: functional, cell-based;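 note: cells exposed to compound about 14 hours before the viability readout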
[12] = HepG2 cell cytotoxicity, dose response, cytotoxicity control for Shn3 inhibitor project, CellTiter-Glo, cherry-picked (AID 624134); type: functional, cell-based
[13] = cytotoxicity in KRAS-transformed pancreatic duct cells, primary screen, cell-based, fluorescence, HTS (AID 431); type: functional; conditions: Homo sapiens;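 note: cell line used: HPDE-C7K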
[14] = cytotoxicity in HPDE-C7 cells, cell-based, fluorescence, HTS (AID 430); type: functional; conditions: Homo sapiens
[15] = cytotoxicity toward DRD oncogenic fibroblasts, dose response, cell-based, non-viral oncogenic, luminescence (AID 1934); type: functional; conditions: Homo sapiens
[16] = control 3'UTR Renilla luciferase suppression, dose response, counter-screen for Shn3 inhibitor project, cell-based, Clone20-Shn3RL, cherry-picked (AID 624133); type: functional
[17] = P. falciparum late gametocyte killing, dose response, luminescence (AID 1117278); type: functional, cell-based;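 note: gametocytes exposed to compound for 24 hours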
[18] = Jurkat T cell cytotoxicity, dose response, cytotoxicity control for P. falciparum gametocyte viability project, luminescence (AID 1117277); type: functional, cell-based;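 note: potency reflects loss of cellular ATP meaning fewer viable cells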
[19] = inhibitors of Vif binding to APOBEC3G peptide, primary screen, biochemical, TR-FRET, GST-Vif 1-94, biotin-A3G peptide, dose response retest (AID 1117319); type: functional;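 note: TR-FRET signal of purified GST-Vif binding a biotinylated A3G peptide; inhibitors lower the FRET signal by blocking Vif and A3G binding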
[20] = target: T1, Oxysterols receptor LXR-beta; assay: LXR agonists, Gal4 luciferase reporter, dose response, counter-screen for ssDAF-12 agonist project, cell-based, luminescence, HEK293, S. stercoralis campaign (AID 720737); type: functional; conditions: read-out: IC50 (the source's name)
[21] = Luminescence-based cell-based high throughput dose response assay to identify activators of the DAF-12 from the parasite S. stercoralis (ssDAF-12).; type: functional

Sequence of Paired box protein Pax-8 (Q06710 whole entry): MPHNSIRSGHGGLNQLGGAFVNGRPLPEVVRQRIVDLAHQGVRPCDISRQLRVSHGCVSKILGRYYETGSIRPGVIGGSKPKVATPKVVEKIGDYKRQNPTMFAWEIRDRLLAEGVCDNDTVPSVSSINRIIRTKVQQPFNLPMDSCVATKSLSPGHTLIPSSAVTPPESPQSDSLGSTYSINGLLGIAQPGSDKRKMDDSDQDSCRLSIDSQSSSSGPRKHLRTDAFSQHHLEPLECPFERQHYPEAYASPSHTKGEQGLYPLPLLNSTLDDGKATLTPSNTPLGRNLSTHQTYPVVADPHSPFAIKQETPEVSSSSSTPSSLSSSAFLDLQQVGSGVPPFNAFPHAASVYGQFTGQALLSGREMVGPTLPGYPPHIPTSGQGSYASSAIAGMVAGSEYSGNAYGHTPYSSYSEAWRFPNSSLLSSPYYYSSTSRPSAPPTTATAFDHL
T2 sequence (P65502 whole entry): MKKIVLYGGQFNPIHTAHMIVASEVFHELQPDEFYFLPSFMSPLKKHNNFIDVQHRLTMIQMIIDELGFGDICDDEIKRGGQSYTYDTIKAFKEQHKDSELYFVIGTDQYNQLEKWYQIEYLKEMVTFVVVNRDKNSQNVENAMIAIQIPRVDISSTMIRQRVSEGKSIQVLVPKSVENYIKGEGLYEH
Sequence of Ephrin type-A receptor 4 (Q03137 whole entry): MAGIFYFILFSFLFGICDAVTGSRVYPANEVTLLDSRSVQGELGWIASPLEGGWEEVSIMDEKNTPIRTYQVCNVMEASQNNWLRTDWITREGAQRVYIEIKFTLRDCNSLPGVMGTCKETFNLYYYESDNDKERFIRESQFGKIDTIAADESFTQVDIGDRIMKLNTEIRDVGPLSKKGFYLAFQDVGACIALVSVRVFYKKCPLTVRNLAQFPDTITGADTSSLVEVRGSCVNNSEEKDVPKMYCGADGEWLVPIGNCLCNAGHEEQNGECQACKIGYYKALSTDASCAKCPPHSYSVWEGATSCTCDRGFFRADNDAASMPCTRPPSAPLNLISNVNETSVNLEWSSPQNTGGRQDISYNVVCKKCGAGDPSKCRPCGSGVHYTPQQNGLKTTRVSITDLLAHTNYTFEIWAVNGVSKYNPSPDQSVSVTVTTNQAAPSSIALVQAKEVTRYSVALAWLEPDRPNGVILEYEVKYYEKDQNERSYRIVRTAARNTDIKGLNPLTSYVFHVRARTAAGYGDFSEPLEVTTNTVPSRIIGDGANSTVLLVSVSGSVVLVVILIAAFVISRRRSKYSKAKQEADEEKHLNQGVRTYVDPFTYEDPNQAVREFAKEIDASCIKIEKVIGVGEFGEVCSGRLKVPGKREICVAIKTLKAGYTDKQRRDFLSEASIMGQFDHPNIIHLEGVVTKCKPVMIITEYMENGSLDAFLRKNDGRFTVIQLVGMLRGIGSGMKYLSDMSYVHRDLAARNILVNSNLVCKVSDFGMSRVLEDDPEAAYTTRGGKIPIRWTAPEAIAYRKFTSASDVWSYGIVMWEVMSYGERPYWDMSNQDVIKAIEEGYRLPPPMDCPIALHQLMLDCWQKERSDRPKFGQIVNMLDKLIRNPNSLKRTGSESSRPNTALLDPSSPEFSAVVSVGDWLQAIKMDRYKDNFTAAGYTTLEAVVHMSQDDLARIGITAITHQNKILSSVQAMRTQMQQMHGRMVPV
Sequence of Beta-galactosidase (Q8VNN2 whole entry): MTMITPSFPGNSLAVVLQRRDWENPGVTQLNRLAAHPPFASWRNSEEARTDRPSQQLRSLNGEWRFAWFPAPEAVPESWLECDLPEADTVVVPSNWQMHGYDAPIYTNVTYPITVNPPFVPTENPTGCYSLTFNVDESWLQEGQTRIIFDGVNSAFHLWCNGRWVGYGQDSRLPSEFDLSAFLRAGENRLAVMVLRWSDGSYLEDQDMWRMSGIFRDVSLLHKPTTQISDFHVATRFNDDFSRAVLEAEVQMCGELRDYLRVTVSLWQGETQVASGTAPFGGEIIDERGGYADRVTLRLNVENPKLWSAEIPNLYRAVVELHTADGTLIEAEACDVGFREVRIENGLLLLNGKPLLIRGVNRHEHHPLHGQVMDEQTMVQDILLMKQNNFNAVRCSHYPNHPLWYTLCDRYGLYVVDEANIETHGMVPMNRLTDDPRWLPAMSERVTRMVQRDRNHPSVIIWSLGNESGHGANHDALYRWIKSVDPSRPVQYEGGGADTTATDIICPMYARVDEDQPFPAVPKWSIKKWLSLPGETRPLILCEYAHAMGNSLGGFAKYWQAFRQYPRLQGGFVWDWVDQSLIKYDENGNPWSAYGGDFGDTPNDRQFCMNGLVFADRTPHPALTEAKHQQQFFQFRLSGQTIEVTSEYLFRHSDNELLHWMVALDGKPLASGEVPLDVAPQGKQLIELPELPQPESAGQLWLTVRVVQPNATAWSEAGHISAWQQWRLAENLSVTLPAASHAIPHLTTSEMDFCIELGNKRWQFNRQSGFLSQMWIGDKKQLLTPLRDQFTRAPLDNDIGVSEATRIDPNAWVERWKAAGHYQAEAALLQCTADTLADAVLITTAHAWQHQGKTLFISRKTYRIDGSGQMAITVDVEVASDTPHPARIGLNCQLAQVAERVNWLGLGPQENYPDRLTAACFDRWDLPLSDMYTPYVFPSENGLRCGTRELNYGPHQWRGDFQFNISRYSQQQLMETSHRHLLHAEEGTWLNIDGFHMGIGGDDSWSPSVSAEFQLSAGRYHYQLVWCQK
Sequence of Estrogen receptor beta (Q92731 whole entry): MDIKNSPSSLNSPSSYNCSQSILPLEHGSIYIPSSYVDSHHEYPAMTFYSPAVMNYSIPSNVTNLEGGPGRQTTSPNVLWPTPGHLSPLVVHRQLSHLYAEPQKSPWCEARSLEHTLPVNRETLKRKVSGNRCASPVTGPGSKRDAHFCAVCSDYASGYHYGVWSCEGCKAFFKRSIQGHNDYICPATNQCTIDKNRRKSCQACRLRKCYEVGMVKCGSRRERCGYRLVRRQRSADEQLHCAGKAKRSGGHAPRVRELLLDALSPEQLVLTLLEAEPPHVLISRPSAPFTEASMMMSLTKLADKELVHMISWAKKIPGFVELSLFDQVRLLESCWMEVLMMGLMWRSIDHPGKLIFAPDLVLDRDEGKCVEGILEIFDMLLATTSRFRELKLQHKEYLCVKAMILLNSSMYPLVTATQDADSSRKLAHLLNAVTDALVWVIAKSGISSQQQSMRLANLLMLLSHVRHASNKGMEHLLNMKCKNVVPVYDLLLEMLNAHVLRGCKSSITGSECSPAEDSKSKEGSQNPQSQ
Sequence of Sphingosine 1-phosphate receptor 2 (O95136 whole entry): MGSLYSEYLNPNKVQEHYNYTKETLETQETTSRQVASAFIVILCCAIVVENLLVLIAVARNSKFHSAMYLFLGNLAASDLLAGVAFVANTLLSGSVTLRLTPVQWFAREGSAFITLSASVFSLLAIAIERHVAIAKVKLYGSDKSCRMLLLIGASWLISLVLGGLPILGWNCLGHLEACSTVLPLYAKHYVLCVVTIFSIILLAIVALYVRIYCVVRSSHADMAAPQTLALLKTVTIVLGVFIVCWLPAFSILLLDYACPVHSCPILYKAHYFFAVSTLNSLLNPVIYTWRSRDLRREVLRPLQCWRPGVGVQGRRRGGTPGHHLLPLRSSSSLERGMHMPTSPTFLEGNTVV

With `Cc1cc(N/C=C/C(=O)c2cccs2)ccc1F` as the compound, how does the EC50 [1] read?
Its EC50 is > 67.6 µM (inactive).

And the EC50 (cells)?
Its EC50 is > 67.6 µM (inactive).

What does the source list for `CC(C)CC(C(=O)Nc1oc(-c2ccco2)c(-c2ccco2)c1C#N)N1C(=O)c2ccccc2C1=O` (stereo not given)?
IC50 (Ephrin type-A receptor 4): > 100 µM (not active); IC50 [2]: 16.4 µM (active); IC50 [3]: 53.1 µM (active)

For `C=CCN1C(=O)NC(=O)/C(=C(/CC)NCc2cccnc2)C1=O`, which IC50 (Estrogen receptor beta) is on record?
Its IC50 is > 50 µM (not active).

For `COc1ccc(N2C(=O)CC(Sc3nnc(-c4ccccc4)o3)C2=O)cc1` (stereo not given), which AC50 (Paired box protein Pax-8) is on record?
Its AC50 is 10.4 µM (active).

And the AC50 (HEK293)?
Its AC50 is 19.6 µM (active).

And the AC50 [4]?
Its AC50 is 44.9 µM (active).

And the IC50 (Beta-galactosidase)?
The IC50 was > 66.6 µM (inactive).

Which AC50 [5] does the source give for `CCn1nnnc1SCC(=O)Nc1nnc(C(C)C)s1` here?
The AC50 was 7.36 µM (active).

What does the source list for `COc1ccc(OC)c(NC(=O)CSc2ncnc3c2cnn3-c2ccccc2Cl)c1`?
AC50 (INS1): 2.15 µM (active); IC50 [6]: 3.67 µM (active)

For `COc1cccc(N2CCN(c3ncnc4c3cnn4-c3ccc(C)cc3C)CC2)c1`, which EC50 (BJ [7]) is on record?
Its EC50 is > 150 µM (inconclusive).

What about the EC50 (BJ [8]) of the same compound?
Its EC50 is 16.8 µM (active).

What about the AC50 (Paired box protein Pax-8) of the same compound?
Its AC50 is 6.38 µM (active).

What about the EC50 (BJ [9]) of the same compound?
The EC50 was 14.4 µM (active).

What about the AC50 [10] of the same compound?
The AC50 was 4.65 µM (active).

And the IC50 [11]?
Its IC50 is 3.73 µM (active).

And the AC50 [12]?
The AC50 was 37.2 µM (active).

And the AC50 [4]?
Its AC50 is 17.5 µM (active).

And the EC50 [13]?
Its EC50 is 3.17 µM (active).

What about the EC50 [14] of the same compound?
The EC50 was 3.78 µM (active).

And the EC50 [15]?
The EC50 was 11 µM (active).

What about the AC50 [16] of the same compound?
The AC50 was 4.03 µM (active).

Which results are given for `COc1ccc(Cl)cc1C(=O)CSc1nnnn1C1CCCCC1`?
IC50 [17]: > 109 µM (inactive); IC50 [18]: 10.9 µM (inactive)

Which IC50 [19] does the source give for `O=C(Cn1nc(-c2ccc(Cl)cc2)ccc1=O)NCc1ccc2c(c1)OCO2` here?
The IC50 was > 100 µM (active).

Which results are given for `COc1ccc(-c2nc3ccccn3c2Cl)cc1`?
EC50 [20]: > 67.6 µM (inactive); IC50 [21]: > 67.6 µM (inactive)
